Literature values in US20090252711A1, “Stem Cells And Methods Of Making And Using Stem Cells” (priority 2006, published 2009).

Key:
cultured ASCs = conditions: Cho et al. 2005
neural stem cells = conditions: Marin-Husstege et al. 2002
lung fibroblast cells = conditions: Mukhopadhyay et al. 2005
hTERT = conditions: normal human cells; Hou et al.

| SMILES | differentiation towards the osteogenic (bone) lineage (cultured ASCs) | differentiation of neural stem cells towards the astrocyte cell type (neural stem cells) | differentiation of neural stem cells towards the oligodendrocyte cell type (neural stem cells) | telomerase activity (lung fibroblast cells) | expression of the gene hTERT (hTERT) |
| --- | --- | --- | --- | --- | --- |
| CCCC(CCC)C(=O)O [Valproic acid] | enhanced differentiation |  |  |  |  |
| CC(/C=C/C(=O)NO)=C\[C@@H](C)C(=O)c1ccc(N(C)C)cc1 [trichostatin A] | enhanced differentiation | not towards the astrocyte cell type | blocked | induced | upregulation |
